Experimental data taken from patent US8481526B2, “Fluoroquinolone carboxylic acid molecular crystals” (Bausch & Lomb Incorporated, priority 2009, dated 2013).
Converted amounts (≈) assume the structure as drawn. Where a name gives a salt, the structure may show the parent alone. Read-outs that look alike come from different tables or passages of the source. Blank lines part the entries; values can stand above or below the molecule they belong to.

What was measured:
Type in all cases: physicochemical
[1] = pH-dependence of solubility in distilled water (HPLC); conditions: for solubility: distilled water, aqueous buffer, thermodynamic from solid
Procedure: (§1) A reversed phase gradient HPLC method was used for the analysis of besifloxacin solubility samples. The conditions are listed below:
(§2) The solubility of besifloxacin HCl, lot 050956330, was determined in distilled water as a function of pH by adjusting the pH with 1 N NaOH. Suspensions of the drug substance (about 50-150 mg in 10 mL distilled water) were equilibrated for 72-96 hours using a Burrell shaker. Laboratory temperature was 22±2° C. The pH of the suspensions was measured in the presence of excess solid prior to sampling. The samples were centrifuged in an Enprotech ISS-I13 centrifuge at 10,000 RPM for 15 minutes or filtered through 0.45[…] or PVDF filters. When samples were filtered, a volume of filtrate was discarded to allow saturation of filters. The supernatant or the filtrate was diluted as needed using the HPLC diluent prior to analysis. Sample concentration was monitored at varying time intervals to ensure complete equilibration. Also, sample concentration was reported as besifloxacin free base concentration rather than HCl salt.

[2] = Equilibrium solubility in various solvents (HPLC); conditions: 22° C. ± 2° C.; for solubility: solubility of free base
[3] = Equilibrium solubility in various solvents (HPLC); conditions: Water, 22° C. ± 2° C.; for solubility: saturated solution pH 3.6 (HCl salt), 8.1 (free base), solubility of free base
Procedure: as §1
The solubility of besifloxacin HCl was evaluated in several organic solvents. An excess of drug substance was equilibrated with 10 mL of each solvent for 24-48 hours at room temperature (24±3° C.) using either a small magnetic stirrer or a Burrell Wrist Action shaker. Samples were inspected visually, and if needed, more drug substance was added until excess solid persisted after stirring. The samples were then filtered through 0.45 μm Nylon or PVDF filters or centrifuged at 10,000 RPM for 15 minutes. The filtrate or the supernatant was diluted as needed using the HPLC diluent and analyzed by HPLC. When solubility was greater than 100 mg/mL, no attempt was made to determine the equilibrium solubility and the compound was described as “freely soluble” as per the USP definition.
as §2

[4] = Moisture sorption analysis (VTI moisture sorption balance); conditions: 25° C.; for Hygroscopicity / moisture sorption behaviour: 10% to 90% RH
Procedure: Moisture uptake and loss was monitored as a function of relative humidity using a VTI, moisture sorption balance. A 30-40 mg sample was loaded into a tared glass sample holder. The initial weight of the sample was accurately recorded. The sample was then dried under a steady stream of nitrogen for 2 hours at 40° C. After initial drying, the sample mass was equilibrated with dry nitrogen at 25° C. and the sample was exposed to progressive stepwise increases in humidity under controlled conditions. The sample was equilibrated for two hours at each new relative humidity. The moisture sorption behavior was monitored at 10% to 90% RH in 10% RH intervals and desorption was monitored from 90% to 10% RH. The % moisture gain/loss was recorded vs. the % RH.

[5] = XRPD of excess solids isolated from equilibrated solubility samples (form conversion); conditions: for Form conversion in aqueous media: pH>4
Procedure: Approximately 20-100 mg of powder was loaded onto a low background sample holder. Samples were analyzed on a Rigaku Miniflex (scanning configuration) and scanned from 5-60°, 2-theta at a rate of 1°2θ/minute with a sampling rate of 0.02 seconds. Patterns were analyzed using Jade software version 7.5, provided by Materials Data Inc.
Excess solids were isolated from equilibrated samples and analyzed by XRPD. […] As discussed below (XRPD section), this phase was identified as the crystalline besifloxacin free base.

[6] = pKa and intrinsic solubility from fit of pH-solubility profile to Henderson-Hasselbach equation; conditions: for solubility: aqueous buffer; for pKa: estimated from fit of pH-solubility profile
Excerpt: To determine pKas that were consistent with observed solubility behavior, the pH dependent solubility was fitted to the following expression: S=So*(10^pKa1-pH+10^pH-pKa2+1) where S=solubility So=intrinsic solubility (total of zwitterionic and neutral species) pKa1=dissociation constant for the carboxylic acid moiety pKa2=dissociation constant for the primary ammonium ion moiety

[7] = Acetonitrile, listed as Free base
[8] = Isopropanol, listed as Free base

solubility ([1]; 22 °C, pH 6.5 (product pH), read-out: Solubility in aqueous media): ~100 µg/mL (≈ 254 µM)
USP def [2, 7]: Insoluble
solubility [2, 7]: 5 µg/mL (≈ 12.7 µM)
USP def ([2]; Ethanol, listed as Free base): Insoluble
solubility ([2]; Ethanol, listed as Free base): 33 µg/mL (≈ 83.8 µM)
USP def [2, 8]: Insoluble
solubility [2, 8]: 4 µg/mL (≈ 10.2 µM)
USP def ([2]; Methanol, listed as Free base): Very slightly
solubility ([2]; Methanol, listed as Free base): 135 µg/mL (≈ 343 µM)
USP def ([3]; listed as Free base): Insoluble
solubility ([3]; listed as Free base): 79 µg/mL
Hygroscopicity / moisture sorption behaviour ([4]; listed as Besifloxacin free base): sorbed moisture at all RH conditions
Moisture sorbed ([4]; 90% RH): up to 5 % w/w
SMILES: N[C@@H]1CCCCN(c2c(F)cc3c(=O)c(C(=O)O)cn(C4CC4)c3c2Cl)C1 [besifloxacin free base, (R)-(+)-7-(3-amino-2,3,4,5,6,7-hexahydro-1H-azepin-1-yl)-1-cyclopropyl-8-chloro-6-fluoro-1,4-dihydro-4-oxoquinoline-3-carboxylic acid]

solubility ([1]; pH 3.54, water, 22° C. ± 2° C., reported as free base concentration, read-out: Solubility): 10600 µg/mL
solubility ([1]; pH 3.58, water, 22° C. ± 2° C., reported as free base concentration, read-out: Solubility): 10200 µg/mL
solubility ([1]; pH 3.72, water, 22° C. ± 2° C., reported as free base concentration, read-out: Solubility): 10300 µg/mL
solubility ([1]; pH 3.95, water, 22° C. ± 2° C., reported as free base concentration, read-out: Solubility): 4180 µg/mL
solubility ([1]; pH 4.58, water, 22° C. ± 2° C., reported as free base concentration, read-out: Solubility): 710 µg/mL
solubility ([1]; pH 4.87, water, 22° C. ± 2° C., reported as free base concentration, read-out: Solubility): 590 µg/mL
solubility ([1]; pH 5.15, water, 22° C. ± 2° C., reported as free base concentration, read-out: Solubility): 240 µg/mL
solubility ([1]; pH 5.17, water, 22° C. ± 2° C., reported as free base concentration, read-out: Solubility): 270 µg/mL
solubility ([1]; pH 5.43, water, 22° C. ± 2° C., reported as free base concentration, read-out: Solubility): 220 µg/mL
solubility ([1]; pH 5.95, water, 22° C. ± 2° C., reported as free base concentration, read-out: Solubility): 120 µg/mL
solubility ([1]; pH 6.31, water, 22° C. ± 2° C., reported as free base concentration, read-out: Solubility): 100 µg/mL
solubility ([1]; pH 6.45, water, 22° C. ± 2° C., reported as free base concentration, read-out: Solubility): 100 µg/mL
solubility ([1]; pH 6.49, water, 22° C. ± 2° C., reported as free base concentration, read-out: Solubility): 80 µg/mL
solubility ([1]; pH 6.72, water, 22° C. ± 2° C., reported as free base concentration, read-out: Solubility): 80 µg/mL
solubility ([1]; pH 8.14, water, 22° C. ± 2° C., reported as free base concentration, read-out: Solubility): 80 µg/mL
solubility ([1]; pH 9.11, water, 22° C. ± 2° C., reported as free base concentration, read-out: Solubility): 80 µg/mL
solubility ([1]; pH 9.59, water, 22° C. ± 2° C., reported as free base concentration, read-out: Solubility): 100 µg/mL
solubility ([1]; pH 9.63, water, 22° C. ± 2° C., reported as free base concentration, read-out: Solubility): 100 µg/mL
solubility ([1]; pH 10.37, water, 22° C. ± 2° C., reported as free base concentration, read-out: Solubility): 270 µg/mL
solubility ([1]; pH 10.85, water, 22° C. ± 2° C., reported as free base concentration, read-out: Solubility): 850 µg/mL
USP def ([2]; Acetonitrile): Insoluble
USP def ([2]; Acetonitrile, listed as Besifloxacin HCL salt): insoluble
USP def ([2]; Acetonitrile, listed as Besifloxacin HCl salt): insoluble
solubility ([2]; Acetonitrile): 12 µg/mL
USP def ([2]; Ethanol): slightly soluble
USP def ([2]; Ethanol, listed as Besifloxacin HCL salt): slightly soluble
USP def ([2]; Ethanol, listed as Besifloxacin HCl salt): slightly soluble
solubility ([2]; Ethanol): 1122 µg/mL
USP def ([2]; Isopropanol): Insoluble
USP def ([2]; Isopropanol, listed as Besifloxacin HCL salt): insoluble
USP def ([2]; Isopropanol, listed as Besifloxacin HCl salt): insoluble
solubility ([2]; Isopropanol): 89 µg/mL
USP def ([2]; Methanol): slightly soluble
USP def ([2]; Methanol, listed as Besifloxacin HCL salt): slightly soluble
USP def ([2]; Methanol, listed as Besifloxacin HCl salt): slightly soluble
solubility ([2]; Methanol): 9898 µg/mL
USP def ([2]; Water): sparingly
Form conversion of excess solid ([5]; equilibrated in organic solvents): no form conversions were observed
USP def ([3]; listed as Besifloxacin HCL salt): sparingly soluble
USP def ([3]; listed as Besifloxacin HCl salt): sparingly soluble
solubility [3]: 10635 µg/mL
Hygroscopicity / moisture sorption behaviour ([4]; listed as Besifloxacin HCl): not hygroscopic
SMILES: N[C@@H]1CCCCN(c2c(F)cc3c(=O)c(C(=O)O)cn(C4CC4)c3c2Cl)C1 [besifloxacin HCl salt]
Form conversion in aqueous media [5]: dissolve and precipitate in a different crystalline form
Form conversion in aqueous media ([5]; listed as besifloxacin HCl): convert in aqueous media (pH>4) to a new crystalline phase
Form conversion of excess solid ([5]; aqueous pH solubility samples, pHs>3.5-4.0): converted to a different crystalline phase

Solubility description of the zwitterion ([1]; aqueous, pH 5.5-9.0): very slightly soluble
Solubility of the zwitterion ([1]; aqueous, pH range 5.5-9.0): ~100 µg/mL
solubility ([1]; 22 °C, aqueous, pH 3, read-out: Maximum solubility as a function of pH): ~10000 µg/mL (≈ 25400 µM)
solubility ([1]; 22 °C, aqueous, pH range 5.5-9.0, read-out: Solubility of the zwitterion): ~100 µg/mL (≈ 254 µM)
solubility ([6]; distilled water (pH adjusted with 1 N NaOH), assumed in fit of pH-solubility profile, read-out: Intrinsic solubility): 74 µg/mL (≈ 188 µM)
solubility ([6]; distilled water, pH adjusted with 1 N NaOH, fit of pH-solubility profile, total of zwitterionic and neutral species, read-out: Intrinsic solubility (So)): 74 µg/mL (≈ 188 µM)
pKa ([6]; read-out: pKa of the carboxylic acid group (pKa1)): 5.65
pKa ([6]; read-out: pKa of the primary amine (ammonium) group (pKa2)): 9.91
SMILES: N[C@@H]1CCCCN(c2c(F)cc3c(=O)c(C(=O)O)cn(C4CC4)c3c2Cl)C1 [besifloxacin, (R)-(+)-7-(3-amino-2,3,4,5,6,7-hexahydro-1H-azepin-1-yl)-1-cyclopropyl-8-chloro-6-fluoro-1,4-dihydro-4-oxoquinoline-3-carboxylic acid]
